From paper PMC6928678, “Simplified Head-to-Tail Cyclic Polypeptides as Biomaterial-Associated Antimicrobials with Endotoxin Neutralizing and Anti-Inflammatory Capabilities” (International Journal of Molecular Sciences, 2019)
Converted amounts (≈) assume the structure as drawn. Where a SMILES comes first, the peptide text is derived from it. [ ]: non-standard residue; d: D form. Orn = NCCC[C@H](N)C(=O)O

Key:
[1] = test system: E. coli ATCC 25,922; test: Swimming motility assay; format: cell-based; conditions: 0.3% agar; OIR3, IR3, DIR3 at 4 μM and 8 μM; GS at all tested concentrations (1–8 µM)
Method: Figure 10 Swimming motility of E. coli ATCC 25,922 treated with OIR3, IR3, DIR3 and GS. Swim plates were prepared using 0.3% agar and inoculated from overnight cultures standardized to an optical density at 600 nm of 1.0. Images were taken after 20 h incubation at 37 °C. Data shown are the mean ± SD of three independent experiments.
Since E. coli ATCC 25,922 cell walls have flagella, their swimming motility can be measured in LB medium containing 0.3% agar. E. coli ATCC 25,922 bacteria were incubated overnight at 37 °C in a shaker until the OD600 = 1.0, then inoculated into 0.3% agar medium containing 1 µM, 2 µM, 4 µM or 8 µM of antimicrobial peptide and incubated again overnight at 37 °C. The swimming motility for each was then measured; each experiment was repeated three times.

[2] = test system: S. epidermidis 12228; test: microbe, parasite or virus in culture; format: cell-based; conditions: 12228, 20 h
Method: (§1) The test strains, including Gram-negative E. coli ATCC25922, E. coli ATCC 1005, S. typhimurium C7731, P. aeruginosa ATCC 27853, S. Typhimurium 14028, Gram-positive S. aureus ATCC29213, S. aureus ATCC 25923, S. epidermidis ATCC 12228 and S. aureus 43300, were obtained from the School of Veterinary Medicine, Northeast Agricultural University (Harbin, China).
(§2) Briefly, the bacteria were incubated overnight at 37 °C with constant shaking at 220 rpm, then were transferred to new MH broth (MHB) medium until they reached the logarithmic phase of growth. The bacteria were then diluted to 10^5 (CFU)/mL in MHB. The peptides were dissolved and diluted in 0.01% acetic acid and 0.2% bovine serum albumin (BSA) at various concentrations (0.5–128 μM) in each well of sterile 96-well plates and incubated for 20 h at 37 °C. […] The test was repeated three times.

[3] = test system: S. typhimurium 14028; test: microbe, parasite or virus in culture; format: cell-based; conditions: 14028, 20 h
Method: as §1, §2

[4] = test system: P. aeruginosa 27853; test: microbe, parasite or virus in culture; format: cell-based; conditions: 27853, 20 h; read-out: MIC
Method: as §1, §2

[5] = test system: S. typhimurium 7731; test: microbe, parasite or virus in culture; format: cell-based; conditions: 7731, 20 h
Method: as §1, §2

[6] = test system: LPS; test: Surface plasmon resonance of peptide-LPS interaction; format: binding; conditions: peptide on CM5 chip, LPS 3.125–50 µg/mL, 20 mM Tris, 100 mM NaCl, pH 7.4
Method: Figure 3 (A) The combining ability of OIR3 and gramicidin S (GS; 0.5 μM, 1 μM, 2 μM, […], 8 μM, 16 μM and 32 μM) with lipopolysaccharide (LPS). (B) SPR spectroscopy of the interaction kinetics of the peptides and LPS. The peptides were immobilized on a CM5 sensor chip as a ligand, and LPS was diluted in a series of concentrations (3.125, 6.25, 12.5, 25 and 50 μg/mL). Data shown are three independent experiments.
Surface plasmon resonance (SPR) is a method commonly used to study protein–protein interactions. The main advantage of SPR is that it provides the ability to measure the binding affinities and association/dissociation kinetics of complexes in real time, in a label-free environment, and using relatively small quantities of materials. Real-time binding interactions between peptides and LPS were measured by using the Biacore 3000 instrument (GE Healthcare, Waukesha, Wisconsin, USA). In […] sodium acetate buffer (pH 5.5), the cyclic antimicrobial peptides OIR3, IR3, DIR3 and GS were diluted to an optimum fixed concentration of 25.6 µM, and then covalently immobilized on the CM5 sensor chip; nearly 1100 resonant units (RU) of the peptide were captured. All measurements were performed in 20 mM Tris buffer (pH 7.4) containing 100 mM NaCl. […]

[7] = test system: TNF-α production in RAW264.7 cells; test: LPS-stimulated TNF-α production (ELISA); format: cell-based, mouse
Method: Figure 11 The inhibitory effects of OIR3, IR3, DIR3 and GS on LPS-stimulated TNF-α production in RAW264.7 cells. The levels of TNF-α in the […] were determined by ELISA using a commercial kit for mouse TNF-α. Data shown are the mean ± SD of three independent experiments.
LPS-activated inflammatory responses are always accompanied by the production of inflammatory cytokines, such as tumor necrosis factor-alpha (TNF-α). Briefly, 2 × 10^5 cells/well RAW264.7 cells were plated in 96-well plates and stimulated with LPS (100 ng/mL) in the absence or presence of the peptides (1–32 μM) for 18 h at 37 °C. The levels of TNF-α were determined using an ELISA kit (Boster, Wuhan, China) in accordance with the manufacturer’s instructions. TNF-α was measured by determining the absorbance at 540 nm.

[8] = RP-HPLC used as measure of hydrophobicity; 4.6 mm × 250 mm Venusil MP C18-5 column, 220 nm, linear acetonitrile gradient 15% to 45% in 30 min, 0.1% trifluoroacetic acid, 1 mL/min
From the text: In this experiment, cyclic, linear and D-proline antimicrobial peptides were designed based on the IR-rich template sequence (IR)nP(IR)nP (n = 1, 2 and 3). […] The […] molecular weights of the peptides were identified using mass spectrometry. […] The hydrophobicity of the peptides in solution is dependably mirrored by the HPLC retention times.

SMILES | inhibition of swimming motility [1] | MIC [2] [µM] | MIC [3] [µM] | MIC [4] [µM] | MIC [5] [µM] | binding of LPS to immobilized peptide (SPR) [6] | inhibition of LPS-stimulated TNF-α expression [7] | RT (retention time) [8] [min]
CC(C)C[C@@H]1NC(=O)[C@H](CCCN)NC(=O)[C@H](C(C)C)NC(=O)[C@@H]2CCCN2C(=O)[C@@H](Cc2ccccc2)NC(=O)[C@H](CC(C)C)NC(=O)[C@H](CCCN)NC(=O)[C@H](C(C)C)NC(=O)[C@@H]2CCCN2C(=O)[C@@H](Cc2ccccc2)NC1=O [GS, gramicidin S, reference compound] (cyclo(V[Orn]L[dF]PV[Orn]L[dF]P)) | almost no inhibition | 2 (≈ 2.28 µg/mL) | 16 (≈ 18.3 µg/mL) | 4 (≈ 4.57 µg/mL) | 8 (≈ 9.13 µg/mL) | weak binding to LPS at high concentrations and almost no binding at the low concentrations | – | –
CC[C@H](C)[C@@H]1NC(=O)[C@H](CCCNC(=N)N)NC(=O)[C@H]([C@@H](C)CC)NC(=O)[C@@H]2CCCN2C(=O)[C@H](CCCNC(=N)N)NC(=O)[C@H]([C@@H](C)CC)NC(=O)[C@H](CCCNC(=N)N)NC(=O)[C@H]([C@@H](C)CC)NC(=O)[C@H](CCCNC(=N)N)NC(=O)[C@H]([C@@H](C)CC)NC(=O)[C@@H]2CCCN2C(=O)[C@H](CCCNC(=N)N)NC(=O)[C@H]([C@@H](C)CC)NC(=O)[C@H](CCCNC(=N)N)NC1=O [OIR3] (cyclo(IRIRIRPIRIRIRP)) | significantly inhibit | 4 (≈ 7.24 µg/mL) | 4 (≈ 7.24 µg/mL) | 8 (≈ 14.5 µg/mL) | 4 (≈ 7.24 µg/mL) | rapidly binds | more strongly inhibited | 12.64
